Reference: patent US20030186950A1, “Use of n-heterocyclic substituted salicylates for inhibition of cellular uptake of cystine” (priority 2000, published 2003)
Entries after “also recorded” stand apart in the source; their conditions may differ.

Assays:
[1] = tested on: Nb2-SFJCD1 rat lymphoma cells; assay: Culture growth inhibition assay in Nb2-SFJCD1 lymphoma cultures; assay type: cell-based; settings: for Growth-inhibitory activity: 0.1-0.3 mM (FIG. 2); for IC50: 45 h, Fischer's medium with 10.0% horse gelding serum, read-out: IC50 (mM) Average ± S.D., growth inhibition
Protocol: (§1) Nb2 lymphoma is of a pre-T cell origin. The parental line (Nb2 U17) is non-metastatic as subcutaneous implants whereas subline Nb2-SFJCD1 is highly metastatic. Nb2-SFJCD1 cultures (doubling time=12-13 hr) were maintained in Fischer's medium (Sigma-Aldrich), supplemented with 10.0% horse gelding serum (lactogen-deficient; one batch, ICN Biomedicals, Inc., Auroro, Ohio), penicillin (50 U/ml) and streptomycin (50 μg/ml). In this medium the cells grow as clumps which can be readily dispersed. Nb2 lymphoma cell lines are used by a number of laboratories; the Nb2-11 subline, is available from the European Collection of Animal Cell Cultures (ECACC) in Salisbury, U.K. The Nb2-U17 and Nb2-SJFCD1 cell lines are available from Dr. Peter W. Gout, B.C. Cancer Research Centre, Vancouver, B.C., Canada.
Nb2-SFJCD1 cells from log phase cultures were centrifuged (3.5 min at 350×g) and gently resuspended in fresh Fisher's medium containing 10% horse gelding serum. Aliquots (1.80 ml) were distributed in 12-well tissue culture plates (Linbro, Flow Laboratories, Mississauga, ON, Canada) and preincubated for 3-5 hours at 37° C. in a water-saturated 5% CO2/air atmosphere. Solutions of the drugs (200 μl portions) were then added to the cultures for a 45 hour incubation (Cin=1.0×10^5 cells/ml). Cell populations were determined using an electronic counter (Coulter Electronics, Hialeah, Fla.).

[2] = as reported in the literature for patients/controls undergoing treatment; cited from earlier work
[3] = tested on: MCF-7 human breast carcinoma cell line; assay: Cell proliferation of MCF-7 breast carcinoma cells; assay type: cell-based
From the text: (§2) The effect of sulfasalazine on cell proliferation was subsequently assessed.

Nb2-U17 tumor transplant = assay: Tumor growth inhibition in Nb rats with subcutaneous Nb2-U17 lymphoma transplants; assay type: in vivo, rat; settings: b.i.d.; for Average tumor size after 7 days: controls 12.6 gr
Protocol: A colony of Nb rats is maintained in the British Columbia Cancer Research Centre Vancouver, B.C., Canada. Approximately equal portions of minced Nb2-U17 tumor tissue, developed subcutaneously in a rat following injection of cultured Nb2-U17 cells, were injected by trocar subcutaneously in the nape of the neck of groups of male Nb rats (one injection per rat), that had been lightly anesthetized with isoflurane (Abbott Laboratories Ltd., Montreal, Canada). […] 2% CMC or saline were used for controls. Drug preparation and administration were carried out under subdued light conditions. Food and water were provided ad libitum. Tumor size, body weight and general health of the rats were monitored twice a day. Tumor size was measured using calipers and expressed in grams using the formula: π/6×length×width×height in cm. […] On necropsy the animals were examined for evidence of metastatic spread with particular attention to tissues such as kidneys, liver and spleen, the target tissues of metastatic Nb2 lymphoma cells. Tissue sections were taken for histologic analysis. Non-tumor-bearing animals were used to establish maximally tolerated dosages.
Groups of male rats (350-400 gr) were used, each carrying a single, well-developed, rapidly growing, non-metastatic, subcutaneous Nb2-U17 tumor transplant in the nape of the neck. Non-metastatic Nb2-U17 tumors were employed to avoid dissemination of cells from the tumor which would interfere with measurements of drug-induced changes in tumor mass. […] The animals were treated for a 7-day period, with drug administration taking place at approximately 12 hour intervals in an attempt to maintain elevated levels of the drug in the circulation.

[4] = tested on: DoHH2 cells (human B-cell non-Hodgkin's lymphoma); assay: Culture growth inhibition assay in DoHH2 cultures; assay type: cell-based; settings: for Growth-inhibitory activity: medium with 5% FBS + 5% horse serum (FIG. 4)
Protocol: as §1, with “Canada. DoHH2 cell suspension cultures (doubling time ca. 20 hours) were maintained in RPMI-1640 medium (Stem Cell Technology, Vancouver, B.C., Canada) containig fetal bovine serum (5%), horse serum (5%) and antibiotics.” for “Canada.”
Assays using DoHH2 cells were similarly performed, using their maintenance medium; Cin=ca. 1.5×10^5 cells/ml (see: Kluin-Nelemans, H. C. et al. (1991) Leukemia 5:221.)

[5] = tested on: MDA-MB-231 human breast carcinoma cell line; assay: Cell proliferation of MDA-MB-231 breast carcinoma cells; assay type: cell-based; settings: 2-ME 60 μM
From the text: as §2

[6] = rat, in vivo, ip
From the text: 2% CMC or saline were used for controls. […] Food and water were provided ad libitum. […] Tissue sections were taken for histologic analysis.
Reduced tumor growth in the animals was therefore not the result of drug-induced dissemination of tumor cells from the transplant site, but reflected genuine, tumor growth inhibition. […] During therapy the animals remained active and their eyes stayed bright; there was no evidence of diarrhea, or changes in the appearance of their fur.

Question: For `Nc1ccc(O)c(C(=O)O)c1` [5-aminosalicylic acid], which Growth-inhibitory activity ([1]; listed as 5-ASA) is on record?
Answer: devoid of growth-inhibitory activity

Question: For `CC(=O)Oc1ccccc1C(=O)O` [Acetylsalicylic acid], which inhibition at 3000 µM ([1]; Rattus norvegicus, 3 mM (FIG. 1), read-out: Inhibition of culture growth at therapeutic concentration) is on record?
Answer: ~50%

Question: What about the IC50 ([1]; Rattus norvegicus) of the same compound?
Answer: 3.09 ± 0.28 mM

Question: What about the “Therapeutic drug levels in plasma” value [2] of the same compound?
Answer: 1 to 3 mM

Question: Which inhibition at 20 µM ([1]; Rattus norvegicus, 0.02 mM (FIG. 1), read-out: Inhibition of culture growth at therapeutic concentration) does the source give for `COc1ccc2c(c1)c(CC(=O)O)c(C)n2C(=O)c1ccc(Cl)cc1` [Indomethacin] here?
Answer: 5 to 10%

Question: And the IC50 ([1]; Rattus norvegicus)?
Answer: 0.15 ± 0.01 mM

Question: And the “Therapeutic drug levels in plasma” value [2]?
Answer: 0.005 to 0.02 mM

Question: What does the source list for `N[C@@H](CCC(=O)O)C(=O)[O-].[Na+]` [Monosodium glutamate]?
Answer: Inhibition of proliferation ([3]; 10 mM): inhibited proliferation in MCF-7 cells to an extent similar to that observed for sulfasalazine; Effect of 2-ME addition on inhibition of proliferation ([3]; 10 mM, 2-ME added): completely negated this effect

Question: With `O=C([O-])c1ccccc1O.[Na+]` [Salicylate, sodium, sodium salicylate] as the compound, how does the “Inhibition of tumor growth” value (Nb2-U17 tumor transplant; i.p. 150 mg/kg body wt, 7 days, 150 mg/kg) read?
Answer: did not inhibit tumor growth; also recorded: had no effect

Question: Which “Effect on culture growth” value ([1]; 0.15 mM, 45 hour experiment) does the source give for `O=C(O)c1cc(/N=N/c2ccc(S(=O)(=O)Nc3ccccn3)cc2)ccc1O` [Sulfasalazine] here?
Answer: only partially arrested growth

Question: And the Cell lysis ([1]; 0.2 mM, period 24-45 hours)?
Answer: induced severe cell lysis

Question: What about the Growth-inhibitory activity [1] of the same compound?
Answer: highly potent

Question: And the “Change of growth-inhibitory effect by elevated cystine” value ([1]; cystine at ca. 3-fold elevated levels (FIG. 5))?
Answer: substantially reduced

Question: What about the Cell lysis ([4]; 1.5% FBS, 0.05 mM, at hr 45 (FIG. 4)) of the same compound?
Answer: extensive cell lysis

Question: What about the Growth-inhibitory activity [4] of the same compound?
Answer: sensitivity to the drug which was similar to that of rat Nb2 lymphoma cells

Question: What about the Growth-inhibitory activity ([4]; listed as sulfasalazine) of the same compound?
Answer: markedly inhibited the growth

Question: What about the “Antagonism of inhibitory action by 2-ME” value [5] of the same compound?
Answer: completely antagonized

Question: What about the Maximally tolerated dose ([6]; Nb, 7 days) of the same compound?
Answer: 250 mg/kg body wt, b.i.d.

Question: What about the Side effects [6] of the same compound?
Answer: no major side effects

Question: And the “Average tumor size after 7 days” value (Nb2-U17 tumor transplant; i.p. 200 mg/kg body wt, start 0.93 gr)?
Answer: 3.43 gr

Question: What about the “Average tumor size after 7 days” value (Nb2-U17 tumor transplant; i.p. 250 mg/kg body wt, start 0.60 gr) of the same compound?
Answer: 2.65 gr

Question: And the “Tumor growth suppression in three of the 13 cases” value (Nb2-U17 tumor transplant; i.p. 200 or 250 mg/kg body wt, 7 days)?
Answer: 90-100%

Question: What about the Lymphoma growth-inhibitory effect (Nb2-U17 tumor transplant; oral 500 mg/kg body wt, 7 days) of the same compound?
Answer: only minor lymphoma growth-inhibitory effect

Question: What about the IC50 ([3]; Homo sapiens, MCF7, MCF-7, read-out: IC50, growth inhibition) of the same compound?
Answer: 500 ± 100 µM

Question: Which Growth-inhibitory activity [1] does the source give for `Nc1ccc(S(=O)(=O)Nc2ccccn2)cc1` [sulfapyridine] here?
Answer: devoid of growth-inhibitory activity
